As usually defined, the IC50 is the concentration that gives 50% inhibition.

The source of these data is article PMC10637841, “Evaluation of Antioxidant and Anti-Inflammatory Activities, and Metabolite Profiling of Selected Medicinal Plants of Nepal” (Journal of Tropical Medicine, 2023).

Structures are written as SMILES. In brackets after ≈: the same amount, converted by molar mass. Read-outs that look alike come from different tables or passages of the source.

For assay [1], the system named is human red blood cells (HRBC) membrane. The assay can be described thus: HRBC membrane stabilization (heat-induced hemolysis). In kind it is cell-based. The note with it: Erythrocyte, read-out: HRBC membrane stabilization IC50. The method, then:
(1) Erythrocyte Suspension. With few modifications, the erythrocyte suspension was prepared using the technique outlined by Pieroni et al.. Healthy human volunteers provided the blood sample, which was centrifuged for 10 minutes at 1500 rpm. The red blood cell (RBC) pallet was washed three times with PBS (pH 7.4) following centrifugation. The buffy coat and supernatant liquid were aspirated out following each wash. The RBCs were resuspended in PBS at a concentration of 20% (v/v). (2) Heat-Induced Hemolysis. The method explained by Gunathilake et al. was used to determine the heat-induced hemolysis with some modifications. […] Then, the mixture was incubated for 20 minutes at 54°C in the water bath with continuous shaking. The mixture was incubated and centrifuged at 2500 rpm for 3 minutes. By using a UV spectrophotometer, the absorbance of supernatant was measured at 540 nm. In the experiment, PBS will be used as blank.

A short description of assay [2]: Nitric oxide (NO) scavenging activity. The note with it: ethanolic leaf extract 100-2000 μg/mL; mean ± SEM. The class given is biochemical. The text has this: (§1) The antioxidant activity of twelve plant extracts was estimated by using various methods, including (2, 2-diphenyl-1-picrylhidrazyl) DPPH free radical scavenging activity, ferrous (Fe^2+) ion chelating agent, ferric (Fe^3+) ion reducing power, nitric oxide (NO^−) scavenging activity, hydroxyl radical scavenging activity, hydrogen peroxide scavenging activity, and total antioxidant activity.

Assay [3] is described as follows: Hydrogen peroxide scavenging activity. In kind it is biochemical. To be noted: ethanolic leaf extract 100-2000 μg/mL; mean ± SEM.
From the text: as §1

Assay [4] in a line: DPPH free radical scavenging activity. In kind it is biochemical. The note with it: ethanolic leaf extract 100-2000 μg/mL; mean ± SEM.
From the text: as §1
Background: The DPPH test is a chemical assay of radical scavenging.

Assay [5] is described as follows: Ferrous (Fe2+) ion chelating activity. To be noted: ethanolic leaf extract 100-2000 μg/mL; mean ± SEM. In kind it is biochemical.
From the text: as §1

Assay [6] can be described thus: Hydroxyl radical scavenging activity. The note with it: ethanolic leaf extract 100-2000 μg/mL; mean ± SEM. In kind it is biochemical.
From the text: as §1

Assay [7] can be described thus: Ferric (Fe3+) ion reducing power. The note with it: ethanolic leaf extract 100-2000 μg/mL; mean ± SEM. The class given is biochemical. The method, then:
as §1
The ferric ion-reducing antioxidant power assay of twelve plant extracts was carried out. The activity was confirmed when the color of the solution was changed from yellow to green and Prussian blue based on the reduction property of extracts and standard, which was measured at 700 nm wavelength using a UV spectrophotometer. The absorbance value was increased with the increasing concentration of plant extract (Table 4).

A short description of assay [8]: Total antioxidant activity (phosphomolybdenum). In kind it is biochemical. To be noted: ethanolic leaf extract 100-2000 μg/mL; mean ± SEM.
From the text: as §1

For the next assay, the system named is rats. More on the design: method as in PMID 32061742. The note with it: rats, 25, 50, and 100 mg/kg; ref [7]; cited from earlier work.
Where [9] appears, read: ethanolic leaf extract 100-2000 μg/mL.

Regarding `O=C(O)COC(=O)Cc1ccccc1Nc1c(Cl)cccc1Cl` [Aceclofenac, aceclofenac], the IC50 in assay [1] (setting [9]) amounted to 21.9 ± 2.34 µg/mL (≈ 61.8 µM).
Consider `O=C1O[C@H]([C@@H](O)CO)C(O)=C1O` [Ascorbic acid], for which the “Nitric oxide scavenging IC50” value in [2] was 3.91 ± 0.80 µg/mL. Also, in assay [3], the “H2O2 scavenging IC50” value is listed as 3.31 ± 0.58 µg/mL. In addition, the “DPPH scavenging IC50” value in [4] was determined as 4.54 ± 0.98 µg/mL. Further, the “Ferrous ion chelating IC50” value in [5] turned out to be 3.68 ± 0.59 µg/mL. Moreover, the “Hydroxyl radical scavenging IC50” value in assay [6] is 4.75 ± 0.43 µg/mL. In addition, the “Ferric reducing IC50” value in assay [7] turned out to be 2.47 ± 0.40 µg/mL. In addition, the “Total antioxidant activity IC50” value in [8] came to 2.87 ± 0.10 µg/mL.
As for `CC(=O)Oc1ccccc1C(=O)O` [Aspirin, aspirin], the IC50 in assay [1] (setting [9]) turned out to be 21.3 ± 0.43 µg/mL (≈ 118 µM).
In the case of `COc1ccc(O)c(C(C)(C)C)c1` [BHA, Butylated Hydroxyl Annisole], the “Nitric oxide scavenging IC50” value in assay [2] is given as 5.58 ± 0.68 µg/mL. For the same compound, the “Ferric reducing IC50” value in [7] is listed as 3.02 ± 0.30 µg/mL.
Regarding `Cc1cc(C(C)(C)C)c(O)c(C(C)(C)C)c1` [BHT, Butylated Hydroxyl Toulene], the “H2O2 scavenging IC50” value in assay [3] turned out to be 2.89 ± 0.32 µg/mL. Further, in assay [4], the “DPPH scavenging IC50” value amounted to 2.90 ± 0.51 µg/mL. Besides, the “Ferrous ion chelating IC50” value in assay [5] worked out at 2.81 ± 0.82 µg/mL. Moreover, the “Hydroxyl radical scavenging IC50” value in assay [6] is reported as 2.90 ± 0.98 µg/mL.
Take `Cc1ccc(-c2ncc(Cl)cc2-c2ccc(S(C)(=O)=O)cc2)cn1` [Etoricoxib, etoricoxib]: the IC50 in [1] (setting [9]) is 11 ± 1.65 µg/mL (≈ 30.6 µM).
In the case of `COc1ccc2c(c1)c(CC(=O)O)c(C)n2C(=O)c1ccc(Cl)cc1` [Indomethacin, indomethacin], in [1], the IC50 came out at 7.14 ± 0.31 µg/mL (≈ 20 µM).
In the case of `C=C1CC[C@@H]2[C@](C)(CO)[C@H](O)CC[C@@]2(C)[C@@H]1C/C=C1/C(=O)OC[C@H]1O` [andrographolide], in the assay on rats, the “Concentration of catalase, superoxide dismutase, and glutathione (antioxidant enzymes)” value is reported as “increase”; the “Level of articular elastase, TNF-α, IL-6, CXC chemokine ligand 2, and myeloperoxidase” value was “decrease”.
